Laboratory results: US8927545B2, “Inhibiting Eph B-3 kinase” (Duke University, priority 2009, dated 2015)
pIC50: −log10 of the molar value. “Also recorded” adds a separate entry of the source.

Assays:
[1] = molecular target: T1, recombinant human EphB3 kinase (Homo sapiens, UniProt P54753); assay: IC50 for inhibiting EphB3 phosphorylation of the BTK peptide (33P radiometric assay, assay of Examples 1-6); assay type: biochemical; details: for EphB3 tyrosine kinase inhibitor activity (in words): inhibition of EphB3 phosphorylation of the BTK peptide; for pIC50: inhibiting EphB3 phosphorylation of the BTK peptide (SEQ ID NO: 4)
T1 sequence (P54753 633-896 limits assumed): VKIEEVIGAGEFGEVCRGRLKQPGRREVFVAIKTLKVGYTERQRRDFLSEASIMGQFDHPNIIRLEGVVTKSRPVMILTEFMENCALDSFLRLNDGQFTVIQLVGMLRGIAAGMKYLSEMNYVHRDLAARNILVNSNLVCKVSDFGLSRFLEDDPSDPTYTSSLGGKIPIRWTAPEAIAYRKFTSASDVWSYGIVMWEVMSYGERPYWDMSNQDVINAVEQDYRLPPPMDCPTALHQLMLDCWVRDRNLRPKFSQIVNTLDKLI

[2] = test system: Animal Model for Stroke (ischemia); assay: Neurological score / neurological deficit after ischemic injury; details: rated between 0 (unaffected) and 4 (worst); different doses; FIG. 7(B)
[3] = test system: Animal Model for Stroke (ischemia); assay: Infarct volume in animal model for stroke (2 h artery occlusion, compound ICV, TTC staining); assay type: in vivo, Sprague-Dawley rats; details: different doses administered ICV; FIG. 6(E), FIG. 7(A)
[4] = test system: panel of tumor cell lines; assay: Dose-response against a panel of tumor cell lines (SRB, % growth); assay type: cell-based, human; details: leukemia, non-small cell lung, colon, CNS, melanoma, ovarian, renal, prostate, breast cancer lines; FIG. 8(A)-(I)
Procedure: The y-axis depicts the % growth and the x-axis depicts the compound concentration. The legends below each graph refer to the different tumor cell lines used. […]
The human tumor cell lines of the cancer screening panel were grown in RPMI 1640 medium containing 5% fetal bovine serum and 2 mM L-glutamine. For a typical screening experiment, cells were inoculated into 96 well microtiter plates in 100 μL at plating densities ranging from 5,000 to 40,000 cells/well depending on the doubling time of individual cell lines. After cell inoculation, the microtiter plates were incubated at 37° C., 5% CO2, 95% air and 100% relative humidity for 24 hours prior to addition of experimental drugs. […]
Following drug addition, the plates were incubated for an additional 48 h at 37° C., 5% CO2, 95% air, and 100% relative humidity. […] Bound stain was subsequently solubilized with 10 mM trizma base, and the absorbance is read on an automated plate reader at a wavelength of 515 nm. […] Using the seven absorbance measurements [time zero, (Tz), control growth, (C), and test growth in the presence of drug at the five concentration levels (Ti)], the percentage growth was calculated at each of the drug concentrations levels. Percentage growth inhibition was calculated as: [(Ti−Tz)/(C−Tz)]×100 for concentrations for which Ti>/=Tz [(Ti−Tz)/Tz]×100 for concentrations for which Ti<Tz. […]

[5] = molecular target: T2, recombinant human EphB3 kinase (Homo sapiens, UniProt P54753); assay: HTRF assay of BTK substrate phosphorylation by EphB3 kinase (known kinase inhibitors)
T2 sequence (P54753 585-998): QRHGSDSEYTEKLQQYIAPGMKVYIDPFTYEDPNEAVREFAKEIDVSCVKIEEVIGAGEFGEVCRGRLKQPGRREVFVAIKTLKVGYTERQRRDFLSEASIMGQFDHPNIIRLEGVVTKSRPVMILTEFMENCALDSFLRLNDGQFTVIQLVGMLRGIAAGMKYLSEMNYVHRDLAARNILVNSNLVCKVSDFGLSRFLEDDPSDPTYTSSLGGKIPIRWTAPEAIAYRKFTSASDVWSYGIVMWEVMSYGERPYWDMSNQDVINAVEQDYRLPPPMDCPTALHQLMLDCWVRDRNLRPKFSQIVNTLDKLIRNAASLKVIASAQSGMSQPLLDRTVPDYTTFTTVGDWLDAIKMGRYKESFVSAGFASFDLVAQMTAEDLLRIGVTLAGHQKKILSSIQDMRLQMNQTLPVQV

[6] = molecular target: T3, recombinant EphB3 (Homo sapiens, UniProt P54753); details: published data, scintillation proximity assay, different substrate; cited from earlier work
T3 sequence (P54753 34-998): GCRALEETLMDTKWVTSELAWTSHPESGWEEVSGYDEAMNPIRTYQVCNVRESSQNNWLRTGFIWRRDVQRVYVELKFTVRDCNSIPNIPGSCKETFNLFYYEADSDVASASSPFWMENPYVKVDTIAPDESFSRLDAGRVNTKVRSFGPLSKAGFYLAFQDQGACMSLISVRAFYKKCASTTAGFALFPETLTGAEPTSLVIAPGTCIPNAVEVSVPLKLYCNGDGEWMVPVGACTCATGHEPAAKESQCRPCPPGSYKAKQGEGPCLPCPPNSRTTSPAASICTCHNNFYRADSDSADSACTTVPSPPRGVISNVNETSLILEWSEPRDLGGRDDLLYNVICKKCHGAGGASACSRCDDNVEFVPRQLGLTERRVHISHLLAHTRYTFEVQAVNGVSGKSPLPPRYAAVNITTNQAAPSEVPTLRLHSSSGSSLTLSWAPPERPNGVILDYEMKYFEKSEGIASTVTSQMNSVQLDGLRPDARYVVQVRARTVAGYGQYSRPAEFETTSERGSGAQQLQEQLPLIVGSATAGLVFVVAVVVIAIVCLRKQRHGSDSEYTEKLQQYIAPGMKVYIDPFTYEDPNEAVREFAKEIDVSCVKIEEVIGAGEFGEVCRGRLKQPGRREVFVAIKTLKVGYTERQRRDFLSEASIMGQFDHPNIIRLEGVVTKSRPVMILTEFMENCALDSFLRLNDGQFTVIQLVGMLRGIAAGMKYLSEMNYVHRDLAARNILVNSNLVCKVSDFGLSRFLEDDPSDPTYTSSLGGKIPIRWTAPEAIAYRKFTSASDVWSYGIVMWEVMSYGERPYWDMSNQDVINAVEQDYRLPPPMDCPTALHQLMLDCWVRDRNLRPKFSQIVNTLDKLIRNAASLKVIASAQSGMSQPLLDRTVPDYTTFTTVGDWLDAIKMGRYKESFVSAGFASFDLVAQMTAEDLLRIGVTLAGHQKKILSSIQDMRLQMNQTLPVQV

[7] = Table 1 pyrazolo[1,5-a]pyridine compounds

Structure (SMILES)	EphB3 tyrosine kinase inhibitor activity (in words) [1]	pIC50 [1, 7]	further results
O=C(Nc1ccccc1Cl)c1cnn2ccccc12 [Compound 1]	showed EphB3 tyrosine kinase inhibitor activity		
CN(C(=O)c1cnn2ccccc12)c1ccccc1Cl [Compound 187597]	inactive	< 4.70	
O=C(Nc1ccccc1)c1cnn2ccccc12 [Compound 187598]	little or no inhibition	< 4.70	
O=C(Nc1cccc(Cl)c1)c1cnn2ccccc12 [Compound 187600]	little or no inhibition	< 4.70	
O=C(Nc1ccc(Cl)cc1)c1cnn2ccccc12 [Compound 187601]	little or no inhibition	< 4.70	
O=C(NCc1ccccc1Cl)c1cnn2ccccc12 [Compound 187604]	little or no inhibition; also recorded: inactive	< 4.70	
COc1ccccc1NC(=O)c1cnn2ccccc12 [Compound 187605]	little or no inhibition	< 4.70	
Cn1cc(C(=O)Nc2ccccc2Cl)c2ccccc21 [Compound 187609]			pIC50 ([1]; Table 2 candidate compounds): < 4.70
O=C(Nc1ccccc1Cl)c1ccnc2ccccc12 [Compound 187611]			pIC50 ([1]; Table 2 candidate compounds): < 4.70
O=C(Nc1ccccc1Cl)c1noc2ccccc12 [Compound 193671]			pIC50 ([1]; Table 2 candidate compounds): < 4.70
O=C(Nc1ccccc1Cl)c1cnn2cccnc12 [Compound 193695]			pIC50 ([1]; Table 2 candidate compounds): < 4.70
O=C(Nc1ccccc1Cl)c1cnn2ncccc12 [Compound 193697]			pIC50 ([1]; Table 2 candidate compounds): < 4.70
O=C(Nc1ccccc1Cl)c1cnc2ccc(Br)cn12 [Compound 209925, 6-bromo-N-(2-chlorophenyl)imidazo[1,2-a]pyridine-3-carboxamide]			pIC50 ([1]; Table 3 imidazo[1,2-a]pyridine compounds): > 6.70
O=C(Nc1ccccc1Cl)c1cnc2ccc(C3CCNCC3)cn12 [Compound 211904, N-(2-chlorophenyl)-6-(piperidin-4-yl)imidazo[1,2-a]pyridine-3-carboxamide]			Neurological deficit [2]: dose-dependent neuroprotection in behavior; Infarct volume at different compound doses [3]: dose-dependent decrease in infarct volume; % growth of tumor cell lines [4]: inhibited
CC(C)(C)n1nc(-c2ccc(Cl)cc2)c2c(N)ncnc21 [PP2]			pIC50 ([5]; 12.5 nM EphB3, 30 min preincubation at RT, […] ATP, 600 nM BTK for 1 hr): 5.77; inhibition ([5]; at 10 μM, HTS positive control): 80%; pIC50 [6]: 6.10
CN[C@@H]1C[C@H]2O[C@@](C)([C@@H]1OC)n1c3ccccc3c3c4c(c5c6ccccc6n2c5c31)C(=O)NC4 [Staurosporine, staurosporine]			inhibition at 100 µM ([5]; read-out: inhibition of phosphorylation): 50%

Now from value to compound, other results behind:

EphB3 tyrosine kinase inhibitor activity (in words) [1]	pIC50 [1, 7]	Structure (SMILES)	further results
	< 4.70	Cc1cccc2c(C(=O)Nc3ccccc3Cl)cnn12 [Compound 193694]	
	> 6.52	O=C(Nc1ccccc1Cl)c1cnn2ccc(N3CCCC3)cc12 [Compound 194727, N-(2-chlorophenyl)-5-(pyrrolidin-1-yl)pyrazolo[1,5-a]pyridine-3-carboxamide]	
